Reference: patent publication US20080014247A1, “METAL-CONTAINING FORMULATIONS AND METHODS OF USE” (Nucryst Pharmaceuticals, priority 2006, published 2008)
≈ marks a conversion by molar mass, not a printed value. Entries after “also recorded” stand apart in the source; their conditions may differ. Where two headings read alike, the source gives them in different places.

Columns and labels:
[1] = Compatibility of nanocrystalline silver with excipients; format: physicochemical; settings: 10% aqueous solution of excipient, 40° C. overnight
Enterobacter cloacae = assay: MIC assay (microdilution); format: cell-based
Escherichia coli = assay: MIC assay (microdilution); format: cell-based
[2] = test system: Mycobacterium tuberculosis H37Ra (ATCC 25177); assay: microbe, parasite or virus in culture; format: cell-based
MMP-9 [3] = assay: Gelatin zymography of colonic homogenates; format: in vivo, rat; settings: oral 100 mg/kg
Method: Gelatin Zymography Activities of MMP-9 and MMP-2 in colonic tissue homogenates were determined by gelatin zymography as described previously. Briefly, colonic homogenates were mixed with equal volume of zymograph sample buffer. Samples were loaded on a 10% SDS-polyacrylamide gel containing 0.1% gelatin. After electrophoresis, the SDS was removed from the gel by incubation with renaturing buffer containing 2% Triton-X-100 for 1 hour. The gel was incubated overnight in developing buffer containing 50 mM Tris-HCl, pH 7.8, 5 mM CaCl2, 0.2 M NaCl, 0.02% Brij-35. The gel was subsequently stained with Coumassie blue for 30 minutes and destained with destaining solution containing 8% acetic acid and 4% methanol. Gelatinolytic activity was determined as transparent bands against the blue background of stained gelatin. MMPs were identified by their molecular weight compared with the standards. Absence of a transparent band on the gel was evidenced as no MMP-9 or MMP-2 activity of the sample tested.

[4] = DNBS-induced colitis in rat: body weight; format: in vivo; settings: rats with DNBS colitis, intracolonic or oral treatment
DNBS-induced colitis [5] = assay: DNBS-induced colitis in rat: total IBD score; format: in vivo
Excerpt: Animals: Male Sprague-Dawley rats, weighing approximately 250-300 gm were purchased from Charles River Laboratories (Raleigh, N.C.). The animals were housed under standard conditions with free access to food and water. They were acclimatized for 2-3 days before commencing the experiments. The study protocol was approved by the Institutional Animal Care and Use Committees (IACUC).
Induction of ulcerative colitis: Colitis was produced according to published methods. Animals were anesthetized by intraperitoneal injection of 75 mg/kg of ketamine plus 5 mg/kg of xylazine. A single intracolonic injection of 120 mg/ml of dinitrobenzenesulfonic acid (DNBS) (Sigma Chemicals, St. Louis, Mo.) in 250 micro liter of 50% ethanol was administered through a Tom Cat catheter (Kendall Sovereign, Mansfield, Mass.) with a closed-end tip, connected to a 1 ml syringe and placed 7 cm proximal to the anus. Lubricant was applied to the tip of the catheter before injection, to protect from mucosal injury. After instillation of DNBS, 0.5 ml of air was insufflated and the catheter was removed.
Sulfasalazine (Sigma Chemicals, St Louis, Mo.), at a concentration of 120 mg/ml for intracolonic treatment and 30 mg/ml for oral treatment was used as the reference drug in all the experiments. Sulfasalazine was first dissolved in 0.1M NaOH at a concentration about 30-fold higher than the required final concentration, and then suspended in 1.5% PVA for oral dosing and 5.7% PVA for intracolonic dosing.
One group was not treated and served as no treatment group. Treatment began one day after administration of DNBS.
Macroscopic Observations: Body weight was recorded daily and the animals were examined for their physical appearance. After five days of treatment, animals were sacrificed. The colon was excised between the ileocecal junction and rectum, and opened longitudinally. After scoring of the consistency of the stool the colon was rinsed in normal saline, examined and thickness of the colonic wall and number and size of ulcers were scored. Stool consistency was graded on a scale of 0-3: 0=normal stool, well formed pellets rigid as normal; 1=loose stool, formed pellet with moisture, soft stool keeping in stool shape; 2=loose stool, stools that have abnormal form with much moisture, softer shapeless stool; 3=watery or bloody diarrhea.
Thickness of colonic wall was graded on a scale of 0-4: 0=normal, no thickness; 1=mild thickness in lower portion of the colon; 2=moderate thickness in localized area; 3=moderate thickness extending to the central portion of the colon; 4=severe thickness in the whole colon. Colonic ulceration was graded on a scale of 0-10: 0=no ulcers; 1=one small ulcer less than 2-3 mm; 2=one large ulcer more than 2-3 mm; 3=two large ulcerations more than 2-3 mm in diameter; 4=two or more sites of ulcerations extending 1 cm along the length; 5-10=when an area of ulceration extended more than 1 cm along the length of the colon, the score increases by 1 for each additional cm of involvement. The total IBD score, obtained by the sum of the scores of colonic ulcer, colon thickness and stool consistency for each animal, was calculated for each treatment group.
Methods: Colitis was induced in rats using DNBS as described in Example 25. Animals were treated intracolonically (250 μl of the test reagents) once a day for five days. […] Methods: Colitis was induced in rats using DNBS as described in Example 25. Animals were treated intracolonically (250 μl of the test reagents) once a day for five days.

DNBS-induced colitis [6] = assay: DNBS-induced colitis in rat: colon histopathological inflammation score; format: in vivo; settings: oral 100 mg/kg, five days
Method: Histopathology: A piece of colonic tissue at 2-4 cm proximal to the anus was excised and fixed in 10% formalin and the sections were stained with hematoxylin and eosin. The remaining length of the colonic tissues was stored at −80° C. for subsequent biochemical assays. The histology slides were examined by a veterinary pathologist who was blinded to the treatment groups. The extent of microscopic mucosal damage of the colon was scored on scale of 0-5 as described with slight modification: 0=normal histological appearance; 1=histological damage limited to surface epithelium, mild infiltration of the submucosa; 2=focal ulceration and cell disruption limited to mucosa, abnormal appearance of colonic wall, mild infiltration of inflammatory cells; 3=focal, transmural inflammation and ulceration, with mild to moderate infiltration of inflammatory cells; 4=Extensive transmural ulceration and inflammation bordered by areas of normal mucosa, moderate infiltration of inflammatory cells; 5=extensive transmural ulceration and inflammation involving entire section from epithelium to serosa, severe infiltration of inflammatory cells.

IL-1β = assay: Immunohistochemical staining of colon tissue; format: in vivo, rat; settings: oral treatment, five days
Method: (§1) Immunohistochemistry: A Universal Streptavidin/Biotin detection system (Thermo Shandon, Pittsburgh, Pa.) was used for immunohistochemical staining of formalin fixed, paraffin embedded biopsies of the colon. After dewaxing, and hydration, sections were treated with protein blocking agent to reduce non-specific binding of antibodies. The tissues were then incubated with rabbit anti-rat TNF-α, or mouse anti-rat IL-12 p70 antibodies (Biosource International, Inc, Camarillo, Calif.); rabbit anti-rat IL-1β (Serotec, Raleigh, N.C.) or rabbit anti-rat MMP-9 antibody (Chemicon International, Telecuma, Calif.) in 1% bovine serum albumin in phosphate buffered saline. Incubations with secondary antibodies, streptavidin/biotin, and chromogenic detection of peroxidase were performed according to the manufacturer's protocol. Sections were counterstained, dehydrated, mounted and examined. The intensity of the immuno-peroxidase staining was graded as described previously. Expression of cytokines was graded as: 0, no staining in the section; 1, less than 25% of the section; 2, 25-50% of the section; 3, 50-75% of the section; 4, >75% of the section with significant staining.

MMP-9 [7] = assay: Immunohistochemical staining of colon tissue; format: in vivo, rat; settings: oral treatment, five days
Method: as §1

TNF-α = assay: Immunohistochemical staining of colon tissue; format: in vivo, rat; settings: oral treatment, five days
Method: as §1

Pseudomonas aeruginosa = assay: MIC assay (microdilution); format: cell-based
Streptococcus pyogenes = assay: MIC assay (microdilution); format: cell-based; settings: lactate solutions
Streptococcus pneumoniae = assay: MIC assay (microdilution); format: cell-based; settings: lactate solutions
[8] = test system: Staphylococcus epidermidis; assay: MIC assay (microdilution); format: cell-based; settings: S. epiderm (ATCC); lactate solutions
Staphylococcus aureus = assay: MIC assay (microdilution); format: cell-based; settings: lactate solutions

## OCc1ccccc1 [Benzyl alcohol]
[1]
  Reaction with nanocrystalline silver: Grey/slightly red

## CCCCCCCCCCCCCCCCCCO [Cetearyl alcohol]
[1]
  Reaction with nanocrystalline silver: Light brown/green/black

## CCCCCCCCCCCCCCCCO [Cetyl alcohol]
[1]
  Reaction with nanocrystalline silver: Grey color - no discoloration

## CCCCCCCCCCCCCCCCCC(=O)OCC(O)CO (centres unmarked) [Glycerol monostearate]
[1]
  Reaction with nanocrystalline silver: Brown discoloration

## CCCCCCCCCCCCCC(=O)OC(C)C [Isopropyl myristate]
[1]
  Reaction with nanocrystalline silver: Grey color - no discoloration

## COC(=O)c1ccc(O)cc1 [Methylparaben]
[1]
  Reaction with nanocrystalline silver: Brown discoloration

## CC(O)CO (centres unmarked) [Propylene glycol]
[1]
  Reaction with nanocrystalline silver: Discoloration

## CCCOC(=O)c1ccc(O)cc1 [Propylparaben]
[1]
  Reaction with nanocrystalline silver: Green discoloration

## OO [Sample H2O2, hydrogen peroxide]
Enterobacter cloacae; SOD and catalase +
  MIC: >500 µg/mL
Enterobacter cloacae; SOD and catalase −
  MIC: 63 µg/mL (≈ 1850 µM)
[1]
  Reaction with nanocrystalline silver: Brown discoloration after drying
Escherichia coli; SOD and catalase +
  MIC: >500 µg/mL
Escherichia coli; SOD and catalase −
  MIC: 31 µg/mL (≈ 911 µM)

## O=C([O-])c1ccccc1.[Na+] [Sodium benzoate]
[1]
  Reaction with nanocrystalline silver: White precipitate

## CCCCCCCCCCCCCCCCCC(=O)O [Stearic acid]
[1]
  Reaction with nanocrystalline silver: Grey color - no discoloration

## CCOCCOCCO [Transcutol, diethylene glycol monoethyl ether]
[1]
  Reaction with nanocrystalline silver: Grey color - no discoloration

## CC[C@@H](CO)NCCN[C@@H](CC)CO [ethambutol]
[2]; Mycobacterium tuberculosis
  MIC: 2 µg/mL (≈ 9.79 µM)

## O=C(O)c1cc(/N=N/c2ccc(S(=O)(=O)Nc3ccccn3)cc2)ccc1O [sulfasalazine, salicylazosulfapyridine]
MMP-9 [3]
  MMP-9 activity: reduced MMP-9 activity
[4]
  body weight: started gaining body weight after one day of treatment
DNBS-induced colitis [5]; intracolonic 100 mg/kg, five days
  total IBD score: Significant reduction of IBD score; also recorded: significantly reduced total IBD score
DNBS-induced colitis [5]; intracolonic 100 mg/kg, five days, listed as Sulfasalazine
  total IBD score: significantly reduced total IBD score
DNBS-induced colitis [5]; oral 100 mg/kg, five days
  total IBD score: significant reduction of the IBD score
DNBS-induced colitis [6]
  histopathological inflammation score: significantly reduced the histopathological inflammation
IL-1β
  expression of IL-1β in colonic tissue: significantly reduced the expression of TNF-α and IL-1β
MMP-9 [7]
  expression of MMP-9 in colonic tissue: significantly reduced the expression of MMP-9
TNF-α
  expression of TNF-α in colonic tissue: significantly reduced the expression of TNF-α and IL-1β

## Benzalkonium chloride [BAC]
Pseudomonas aeruginosa; isolate NP220 (BAC-sensitive)
  MIC: 63 µg/mL
Pseudomonas aeruginosa; isolate NP221 (BAC-resistant)
  MIC: 4000 µg/mL
Pseudomonas aeruginosa; isolate NP222 (BAC-sensitive)
  MIC: 63 µg/mL

## Sodium parabens
[1]
  Reaction with nanocrystalline silver: Precipitation

## silver oxide [Ag2O]
Streptococcus pyogenes; S. pyog (clin. 303)
  MIC: 2 µg/mL
Streptococcus pyogenes; S. pyog (clin. 304)
  MIC: 3 µg/mL
Streptococcus pneumoniae; S. pneumo (clin 314)
  MIC: 3 µg/mL
Streptococcus pneumoniae; S. pneumo (clin 315)
  MIC: 2 µg/mL
Escherichia coli; E. coli (ATCC), lactate solutions
  MIC: 0.8 µg/mL
[8]
  MIC: 2 µg/mL
DNBS-induced colitis [5]; 0.05% sonicated nanodispersion, 250 μl intracolonically once a day for five days
  total IBD score: but not 0.15% and 0.05%, significantly reduced
DNBS-induced colitis [5]; 0.15% sonicated nanodispersion, 250 μl intracolonically once a day for five days
  total IBD score: but not 0.15% and 0.05%, significantly reduced
DNBS-induced colitis [5]; 0.25% homogenized, 250 μl intracolonically once a day for five days
  total IBD score: unable to show significant reduction
DNBS-induced colitis [5]; 0.5% homogenized, 250 μl intracolonically once a day for five days
  total IBD score: unable to show significant reduction
DNBS-induced colitis [5]; 0.5% sonicated nanodispersion, 250 μl intracolonically once a day for five days, vs placebo
  total IBD score: significantly reduced the total IBD score
DNBS-induced colitis [5]; 1.5% sonicated nanodispersion, 250 μl intracolonically once a day for five days
  total IBD score: significantly reduced the total IBD score
Staphylococcus aureus; S. aureus (ATCC)
  MIC: 3 µg/mL
Staphylococcus aureus; S. aureus (clin.)
  MIC: 6 µg/mL
[2]
  MIC: 2.5 μg/ml silver
Pseudomonas aeruginosa; P. aerug (ATCC), lactate solutions
  MIC: 0.8 µg/mL
Pseudomonas aeruginosa; P. aerug. (clin.), lactate solutions
  MIC: 2 µg/mL
